The values that follow come from ChEMBL document CHEMBL1240514, “Design and synthesis of potent "sulfur-free" transition state analogue inhibitors of 5'-methylthioadenosine nucleosidase and 5'-methylthioadenosine phosphorylase” (J Med Chem, 2010).

The source made the active and inactive calls. The rule behind the calls is not given here.

Experiment [1] has as its target T1, S-methyl-5'-thioadenosine phosphorylase (Homo sapiens, UniProt Q13126).
T1 sequence (Q13126 whole entry): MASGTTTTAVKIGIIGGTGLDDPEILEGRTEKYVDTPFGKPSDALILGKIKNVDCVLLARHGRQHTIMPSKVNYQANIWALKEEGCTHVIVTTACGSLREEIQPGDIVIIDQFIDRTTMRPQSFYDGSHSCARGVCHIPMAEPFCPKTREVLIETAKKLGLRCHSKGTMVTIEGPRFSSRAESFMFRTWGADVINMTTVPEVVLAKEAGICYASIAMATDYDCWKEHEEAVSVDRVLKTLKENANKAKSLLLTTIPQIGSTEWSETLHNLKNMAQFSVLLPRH
The experiment can be described thus: Inhibition of His-tagged human MTAP.

In experiment [2] the target is T2, S-methyl-5'-thioadenosine phosphorylase (Homo sapiens) (UniProt Q13126).
T2 sequence (whole entry): T1 sequence (Q13126 whole entry)
The experiment can be described thus: Inhibition of His-tagged human MTAP at 2.5 uM.

In experiment [1], `CC[C@H]1CN(Cc2c[nH]c3c(N)ncnc23)C[C@@H]1O` returned a Ki of 0.7 nM.
On the same count and under the same terms, with `C=CC[C@H]1CN(Cc2c[nH]c3c(N)ncnc23)C[C@@H]1O` (racemic) the figure was 3 nM; with `Nc1ncnc2c(CN3C[C@H](C4CC4)[C@@H](O)C3)c[nH]c12` (racemic), 2.1 nM.
Take `C=C[C@H]1CN(Cc2c[nH]c3c(N)ncnc23)C[C@@H]1O` (racemic): the Ki in experiment [1] is 3.2 nM.
For the compound `C#C[C@H]1CN(Cc2c[nH]c3c(N)ncnc23)C[C@@H]1O` (racemic), in experiment [1], the inhibitory constant (Ki) was found to be 31 nM.
The same measure, in the same setting: then `CC[C@H]1CN(Cc2c[nH]c3c(N)ncnc23)C[C@H]1O` (racemic), with 34 nM.
Take `CC(C)C[C@H]1CN(Cc2c[nH]c3c(N)ncnc23)C[C@@H]1O` (racemic): in experiment [1], the affinity corresponds to a Ki of 1.7 nM.
The same measure, in the same setting: with `Nc1ncnc2c(CN3C[C@H](C4CCCC4)[C@@H](O)C3)c[nH]c12` (racemic) the figure was 2.6 nM; with `Nc1ncnc2c(CN3C[C@H](CC4CCCCC4)[C@@H](O)C3)c[nH]c12` (racemic), 14 nM.
Take `Nc1ncnc2c(CN3C[C@H](c4ccccc4)[C@@H](O)C3)c[nH]c12` (racemic): the affinity in experiment [1] corresponds to a Ki of 8 nM.
`Nc1ncnc2c(CN3C[C@H](O)[C@@H](n4ccnn4)C3)c[nH]c12` (racemic) returned a Ki in experiment [1] of 59 nM.
In the case of `Nc1ncnc2c(CN3C[C@H](c4cn(Cc5ccccc5)nn4)[C@@H](O)C3)c[nH]c12` (racemic), the inhibition result in experiment [2] is “inactive”.
Turning to `Nc1ncnc2c(CN3C[C@H](CCCSCc4ccccc4)[C@@H](O)C3)c[nH]c12` (racemic), in experiment [1], the affinity corresponds to a Ki of 71 nM.
